Drawing on a melting point compilation (Tetko et al.; mined from patent text by program, amines drawn as free bases though some values may be those of a salt), this text covers melting point for 90 compounds.

The structures appear in SMILES notation. Where only a bound is given, the exact number is not on record here.

In the case of `Cc1ccccc1-c1cc(C(C)(C)C)c(O)c(C(C)(C)C)c1`, the melting point lay in the range of 85.5 to 87.5 °C.
In turn, `O=C(O)C(=O)c1ccc(OCC(=O)N2CCOCC2)cc1` showed a melting point of 182 to 184 °C.
On to `CSC(=O)C(=O)c1cccc(NC=O)n1`, for which the melting point was 163 to 165 °C.
Take `CCOC(=O)c1cn(C(C)(C)C)c2nc(N3CC[C@H](N)C3)c(F)cc2c1=O`: the melting point was 255 °C.
`CCOC(=O)c1cn(-c2ccc(Oc3ccccc3)cc2)cn1`: the melting point fell in the range of 113 to 114 °C.
The same measure for `Nc1ccc2oc3c(c2c1)CCCCCC3`: 97 to 98 °C.
`O=C(C=Cc1ccc(O)cc1)N(CCO)CCO` yielded a melting point of 148 to 150 °C.
The same measure for `Nc1ccccc1Cn1cc(C(F)(F)F)ccc1=O`: 83.4 to 85.3 °C; for `COc1ccc(C(=O)c2ccc(OCc3nc(-c4ccccc4)oc3C)nc2)c(OC(C)C(=O)O)c1` (stereo not given): 162 to 163 °C.
With `CC(=O)N1CS(=O)c2c1cc(C)cc2[N+](=O)[O-]` (stereo not given) the figure was 141 °C.
The same measure for `Fc1cc2c(cc1Cl)C(Cl)Cc1ccccc1S2` (stereo not given): 94 to 96 °C.
`CC(C)(C)OC(=O)N1CCC(n2cc(-c3ccc(Oc4ccccc4)cc3)c3c(N)ncnc32)CC1` returned a melting point of 168 to 170 °C.
With `CC1CN(c2ccc(N)cc2Cl)C(=O)O1` (stereo not given) the figure was 140 to 141 °C; with `O=C=Nc1c2c(cc3c1CCC3)CCC2`, 40 to 41 °C.
With `CNC(=O)c1cnn(-c2ccc(Br)cc2)c1C#N` the figure was 240 to 241 °C; with `CC(C)(C)c1cc(C(=O)Nc2ccc([N+](=O)[O-])cc2)cc(C(C)(C)C)c1O`, 277 to 278 °C.
As for `COc1ccc(OCCCC2CCN(c3ccc(Cl)nn3)CC2)c(Cl)c1`, the melting point was 101 °C.
`CC(=O)c1cccc(C)c1NC(=O)CCl` registered a melting point of 88 to 89 °C.
The same measure for `CC(=O)N1c2ccccc2Sc2cc([N+](=O)[O-])ccc21`: 144 to 146 °C; for `Nc1ccc(-n2ncnc2-c2ccccc2)cc1`: 161 to 163 °C; for `COC(=O)C1=Cc2cc(Br)ccc2CCC1`: 83 to 84 °C.
Regarding `COc1ccc(-c2cnc3[nH]cc(C(=O)NC4CCN(C(C)=O)C4)c3n2)cc1OC` (stereo not given), the melting point was 211 to 212 °C.
The same measure for `COc1cc(CCl)ccc1C12CC3CC(CC(C3)C1)C2`: 77 to 78 °C; for `Cc1nc(NCc2ccccn2)[nH]c(=O)c1CCO`: 185 °C.
`CC1(Cn2c(=O)oc3ccc(-c4ccccc4)cc32)Cn2cc([N+](=O)[O-])nc2O1` (stereo not given) returned a melting point of 254 to 255 °C.
The same measure for `O=C(O)[C@@H]1CCCC[C@H]1C(=O)CS` (relative stereo): 112 to 117 °C.
With `CC1OC(OCc2ccccc2)C(F)C(O)C1O` (stereo not given) the figure was 124 to 126 °C.
On to `COC(=O)c1ccc(OCC(C)NCC(O)c2ccc(O)c(CO)c2)cc1` (stereo not given), for which the melting point was in the range of 60 to 68 °C.
In the case of `COC(=O)Cn1c(C)cc(CC2CCCCC2)c([N+](=O)[O-])c1=O`, the melting point came out at 128 °C.
Regarding `CN(C)C(c1cccc(F)c1)C1CCC(=O)CC1` (stereo not given), the melting point fell in the range of 72 to 75 °C.
With `CCc1ccc(C=NNC(=O)c2ccc(O)cc2)o1` the figure was 60.5 °C; with `CSc1cncc(-c2nc(=O)c3ccccc3s2)n1`, 202 to 203 °C.
Take `COC(=O)c1ccc(-c2cc(-c3cc4c(cc3C)CCCC4(C)C)[nH]n2)cc1`: the melting point fell in the range of 92 to 93 °C.
With `CCOC(=O)COc1cc2ccsc2c(Cl)c1Cl` the figure was 92 to 93 °C; with `CC(C)(C)c1cccc(C[C@@H]2N[C@@H](c3ccccc3)[C@@H](c3ccccc3)OC2=O)c1`, 136 to 137 °C; with `N#Cc1ccc(-c2cccc(C=O)c2O)cc1`, 120 to 121 °C.
With `CC1(C)OCCc2c1n(Cc1ccccc1)c1ccccc21` the figure was 132 to 134 °C.
`COc1ccc(Cn2cc(C(=O)O)c(=O)c3ccc(N4CCNCC4)cc32)cc1` came in with a melting point of 230 to 235 °C.
`CCCc1[nH]c(=O)oc1-c1ccnc(-c2ccccc2)c1` had a melting point of 202 to 204 °C.
On to `CC(C)(C)C(Br)(Br)C(=O)O`, for which the melting point fell in the range of 241 to 243 °C.
With `Cc1cc(N2CCN(c3ccccc3)CC2)c(C#N)c(=O)[nH]1` the figure was greater than 270 °C.
`CCOc1cc(Cn2[nH]c(N)cc2=O)ccc1Cl` registered a melting point of 143 °C.
With `CC(=O)N1CCSC1Cc1cnn(-c2ccccc2)c1-c1ccc(Cl)cc1` (stereo not given) the figure was 121 to 122 °C.
With `CC(c1ccc2ncccc2c1)n1nnc2ccc(-c3cnn(CCO)c3)nc21` (stereo not given) the figure was 188 to 191 °C; with `O=c1[nH]nc(-c2nc3ccccc3o2)[nH]1`, greater than 300 °C; with `Cc1cc(C(=O)CCc2sc(-c3ccc(C(F)(F)F)cc3)cc2C(C)C)ccc1OCC(=O)O`, 139 to 143 °C.
Consider `O=[N+]([O-])c1ccc(-n2ccnn2)c(F)c1`, for which the melting point fell in the range of 123 to 124 °C.
The same measure for `CC(C)N1CCN(c2ccc(Nc3cc(-c4ccc5c(CCO)cn(C)c5c4)c(Cl)n4ccnc34)nc2)CC1`: 181 °C; for `CC(C)N(C(=O)CN1C(=O)Cn2cnnc2-c2ccccc21)c1ccccc1`: 141 to 143 °C; for `O=C1CC2(C(=O)N1)c1ccccc1Oc1ccccc12`: 226 to 228 °C.
With `Cc1cc2cnnc(Cl)c2n1CC(C)C` the figure was 96 to 99 °C; with `O[C@@H]1CCCC[C@H]1N=Cc1ccccc1` (relative stereo), 86 °C; with `NS(=O)(=O)c1ccc(-n2nc(C(F)F)cc2-c2nc3cccc(F)c3s2)cc1`, 246 to 248 °C.
On to `COc1ccc2cnc(N)nc2c1C(C)C`, for which the melting point fell in the range of 112 to 113 °C.
With `O=C1CCCc2nc3cc(Cl)ccc3c(NCc3ccc(F)cc3)c21` the figure was 156 to 158 °C; with `COC(=O)CCn1nnnc1CC[C@H](NC(=O)OCc1ccccc1)C(=O)OC`, 80 to 81 °C.
With `O=C1c2ccccc2C(=O)c2oc(-c3cccc(F)c3)nc21` the figure was 230 °C.
The same measure for `CC(C)(C)OC(=O)C(Cc1ccccc1)NC(=O)c1ccc2c(Cl)cnc(Cl)c2c1` (racemic): 156 to 157 °C; for `Cc1cc(CCc2cc(C)c(O)c(C)c2Br)c(Br)c(C)c1O`: 191 to 194 °C.
On to `COc1cc(OCCOc2ccccc2)cc2nc(-c3cc(C)nc(C)c3)[nH]c(=O)c12`, for which the melting point lay within 223 to 224 °C.
With `Cc1ccccc1NC(=O)CN1C[C@@H](C)N(S(=O)(=O)c2cccc([N+](=O)[O-])c2)[C@@H](C)C1` the figure was 163 to 164 °C.
The same measure for `CC(=O)Oc1cccc2c1C13CCN(C)C(C2)C1CCC(=O)C3` (single isomer, unassigned; (-)): 96 to 97 °C.
Compound `CCOC(=O)c1cnncc1NC(=O)Cc1c(F)cc(F)cc1F` came in with a melting point of 143 to 144 °C.
`COc1ccc(C(OCC2OC(n3cnc4c(=O)[nH]c(NC(=O)Cc5ccc(Cl)c(Cl)c5)nc43)CC2O)(c2ccccc2)c2ccc(OC)cc2)cc1` (stereo not given) came in with a melting point of 150 to 155 °C.
Regarding `Cc1nc2c(F)c(F)cc(F)c2s1`, the melting point fell in the range of 91 to 92 °C.
In the case of `O=C(Nc1ccc(F)cc1)NC1CCN(C(=O)c2ccc(C(=O)O)cc2)CC1`, the melting point lay within 195 to 198 °C.
Compound `CC(C)(C)OC(=O)N1CCN(C(c2ccccc2)c2ccccc2)CC1` returned a melting point of 129 to 131 °C.
The compound `CC(=O)Nc1cncc(NC(=NC#N)NC2(c3ccccc3)CCC2)c1` yielded a melting point of 207 to 208 °C.
With `Cc1nc2cccc(OCC(C)(C)C(=O)NCC3CCC3)c2c(N)c1C(=O)O` the figure was 170 to 172 °C; with `CCCCCCc1cc2c(cc1C(=O)O)CCCCC2(C)C`, 74 to 75 °C; with `CC(C)(C)OC(=O)n1cc(C(=O)C2CSC(c3cccnc3)N2C(=O)C=O)c2ccccc21` (stereo not given), 125 to 130 °C.
`CC(C)n1nc(-c2nc(C(N)=O)c(N)nc2Cl)ccc1=O`: the melting point is greater than 250 °C.
In the case of `CCCCCCCCCCCCNC(=O)COc1ccc(OC(=O)c2ccccc2)cc1[N+](=O)[O-]`, the melting point fell in the range of 110 to 111 °C.
With `O=Cc1cc(OCCCNC(=O)NC2CCCCC2)ccc1[N+](=O)[O-]`, the melting point fell in the range of 150 to 152 °C.
The same measure for `CC1(C)OC(=O)Nc2ccc(/C=C/C(N)=O)cc21`: 196 to 198 °C; for `O=C1CNc2cc(Cl)ccc2N1`: 171 to 174 °C.
The same measure for `COc1cc(C2=NNC(=O)CC2)ccc1OCC1CO1` (stereo not given): 134 to 136 °C.
The same measure for `CC(C)(C)OC(=O)N[C@@H]1CCc2ccc(OS(=O)(=O)C(F)(F)F)cc2C1`: 52 to 55 °C.
In the case of `Cc1nnc2n1-c1sc(C#CCn3c(=O)n(C)c(=O)c4ccccc43)cc1C(c1ccccc1Cl)=NC2`, the melting point was in the range of 167 to 170 °C.
For the compound `CCCCCCCCCCCCc1c[nH]c(C(=O)NN)c1`, the melting point fell in the range of 137 to 140 °C.
In turn, `COc1ccc(C=CC(=O)Nc2cc(Cl)ccc2C(=O)O)cc1OC` displayed a melting point of 255 to 257 °C.
On to `N#Cc1ccc(N2CCC[C@H]2C(N)=O)c2ccccc12`, for which the melting point was in the range of 177 to 178 °C.
With `CC(=O)C1CCC2C3CCC4CC(O)C(N5CCSC(C)(C)C5)CC4(C)C3CCC12C` (stereo not given) the figure was 184 to 185 °C.
In the case of `CC(=O)N[C@@H](CSC(=O)C(C)C)C(=O)NCCSC(=O)C(C)C`, the melting point fell in the range of 99 to 100 °C.
Consider `CCOC(=O)C1=C(C(=O)OCC)c2c(OC)ccc(Br)c2C1`, for which the melting point lay in the range of 99 to 101 °C.
With `CCCc1nc2c(N)nc3cc(OCCCNC(=O)c4cccnc4)ccc3c2n1CC(C)C` the figure was 172 to 174 °C; with `COc1ccc(C(=O)Nc2ccc3c(c2)CCC3=O)cc1`, 237 to 238 °C.
As for `CC(Oc1ccc([N+](=O)[O-])cc1F)c1c(Cl)ccc(F)c1Cl` (stereo not given), the melting point turned out to be 110 °C.
For the compound `COc1ccc(-c2cc3ccc(C(=O)O)cc3s2)cc1C12CC3CC(CC(C3)C1)C2`, the melting point was 305 °C.
With `Cc1cc(NC(=O)CC(C)(C)C)c(C)c2c1OCC2c1ccc(C(C)C)cc1` (stereo not given) the figure was 135 to 136 °C.

By melting point is commonly meant the temperature, or range, at which the solid turns liquid.
